Tested on: hair follicle pigmentation unit
Test: Hair pigmentation: quantitative Masson-Fontana melanin staining in organ-cultured human scalp skin / hair follicles
Format: cell-based
Details: spermidine 3HCl 0.1 μM, given at each medium change (every 48 hours), 6 days organ culture; compared with vehicle; FIG. 1 and FIG. 2
Protocol: The skin of normal human scalp was taken from a person who had undergone a routine face lifting surgery after receiving the informed consent. All the experiments were carried out according to the Helsinki principles, with the ethical committee's approval.
The tissues subject to biopsy with 3-4 mm cylindrical scalpel were cultured at 37° C. for 6 days in Williams E medium (Biochrom, Cambridge, U.K.), integrated with 100 IU ml^−1 penicillin, 10 μg ml^−1 streptomycin (Gibco, Karlsruhe, Germany), 10 μg ml^−1 insulin (Sigma, Taukfirchen, Germany), 10 ng ml^−1 hydrocortisone (Sigma) and 2 mmol L^−1 (L-glutamine (Invitrogen, Paisley, U.K.). […]
The Masson-Fontana staining was carried out for the histochemical display of melanin on frozen sections. Melanin was stained in the form of brown granules and the pigmentation level was determined through the quantitative Masson-Fontana technique (Ito N., Ito T., Kromminga A., Bettermann A., Takigawa M., Kees F., Straub R. H., and Paus R. (2005): Human hair follicles display a functional equivalent of the hypothalamic-pituitary-adrenal axis and synthesize cortisol. FASEB J 19, 1332-4). […]
The staining intensity was analyzed in a defined reference region of the hair follicle pigmentation unit using the ImageJ software (National Institute of Health). […]

With `NCCCCNCCCN` [spermidine, N-(3-aminopropyl)butan-1,4-diamine] the “pigmentation intensity in hair follicles (melanin, Masson-Fontana staining)” value was “increase of melanin”.
